Columns and labels:
[1] = test system: membrane vesicles purified from the midgut tissue of B. mori larvae; test: Uptake of radiolabeled leucine into membrane vesicles from B. mori larval midgut; assay type: biochemical, Bombyx mori; conditions: 0.2 mM test substance, 0.1 mM L-leucine, pH 10.8, 7 seconds incubation; None (control) 450 ± 20
Protocol: The effect of different esters and aminoesters was tested in vitro by measuring the uptake of radiolabeled leucine into membrane vesicles purified from the midgut tissue of B. mori larvae.
Uptakes were measured by incubating 10 μl of membrane vesicles and 40 μl of a isosmotic mixture buffered at pH 10.8 and containing 0.1 mM L-leucine, 30 μCi/ml of L-[3H]-leucine as a tracer and 0.2 mM of the substances indicated. Incubations were stopped after 7 seconds by 75-fold dilution in an ice-cold isotonic saline and filtration through cellulose filters (0.2 μm mesh). Filters were then counted for radioactivity in a scintillation counter and data were expressed per mg of membrane proteins. Vesicles were prepared by calcium precipitation and differential centrifugation from Bombyx mori larval midgut according to standard biochemical protocols.

[2] = test system: Bombyx mori larvae; test: Rearing of Bombyx mori larvae on artificial diet supplemented with ester; assay type: in vivo; conditions: 130 mg per 1 kg of diet; for Percent of mortality: first three larval instars

Compound | Leucine uptake [1] | further results
CCC(C)CC(=O)OC (stereo not shown) [3-methylvaleric methyl ester] | 800 ± 30 pmol/7s/mg membrane protein | 
COC(=O)CCC(C)C [4-methylvaleric methyl ester] | 2600 ± 80 pmol/7s/mg membrane protein | 
CCOC(=O)[C@@H](N)CC(C)C [Leucine ethyl ester] | 2200 ± 75 pmol/7s/mg membrane protein | 
COC(=O)[C@@H](N)CC(C)C [Leucine methyl ester, L-leucine methyl ester] | 4500 ± 150 pmol/7s/mg membrane protein | Weight of cocoon shell ([2]; Polyhybrid (28 × 15) × (10 × 14), control 0.32 ± 0.02): 0.46 ± 0.03 g; Weight of cocoon shell ([2]; Race BG35, control 0.25 ± 0.02): 0.31 ± 0.01 g; Percent of mortality ([2]; Polyhybrid (28 × 15) × (10 × 14), control 19): 0%; Percent of mortality ([2]; Race 21 Molucelli, control 30): 20%
COC(=O)[C@@H](N)CCSC [Methionine methyl ester, L-methionine methyl ester] | 4000 ± 180 pmol/7s/mg membrane protein | 
CCCC[C@H](N)C(=O)OC [Norleucine methyl ester] | 3800 ± 100 pmol/7s/mg membrane protein | 
